In patent US20260191853A1, “METHOD OF TREATING DRUG-INDUCED BRADYARRHYTHMIA” (OSAKA UNIVERSITY, priority 2022, published 2026):
Entries after “also recorded” stand apart in the source; their conditions may differ.

Key:
Assay type in all cases: in vivo
beagle dog = experiment: Therapeutic effect on propranolol-induced bradycardia in conscious beagle dog; settings: compound (I) dihydrochloride 0.01, 0.1, 1 mg/kg bolus i.v., FIG. 9
Procedure: A peripheral venous path was secured with an 18 G needle in the right forelimb of a beagle dog (body weight: about 10 kg, female, available from Oriental Yeast Co., Ltd.), and then held on an operating table. Heart rate was monitored with an electrocardiographic monitor worn on the animal. A manchette was worn on the left forelimb, and blood pressure was measured with an Omron automatic electronic sphygmomanometer. The left ventricular function was measured by the M-mode method using the echocardiographic left parasternal short-axis two-chamber view. After stabilization of the heart rate, propranolol (Inderal Injection, available from AstraZeneca K.K.) was administered by bolus intravenous injection at a dose of 2 mg/kg, followed by continuous intravenous injection at a dose of 1 mg/minute with a syringe pump. After the elapse of about 30 minutes, the stabilization of the heart rate was determined, and then saline and compound (I) dihydrochloride (0.01 mg/kg, 0.1 mg/kg, 1 mg/kg) were administered by bolus intravenous injection at 10-minute intervals. About 10 minutes after each administration, heart rate, blood pressure, and left ventricular function were measured and evaluated in a stable state. The solvent used was saline (available from Otsuka Pharmaceutical Factory, Inc.).

Hartley guinea pigs [1] = experiment: Preventive effect on siponimod-induced bradyarrhythmia in isoflurane-anesthetized guinea pig model
Procedure: A solvent or compound (I) (free form) was administered by oral gavage at a dose of 0.3. 1, or 3 mg/kg (volume: 5 mL/kg) to Hartley guinea pigs (7 to 10 weeks old, male, available from Japan SLC, Inc.). After completion of the administration, each animal was subjected to anesthetic induction by inhalation of isoflurane (available from Pfizer Japan Inc.), and the animal was held on an operating table having a heater function. The trachea was incised, and a tracheal cannula (KN-375, available from Natsume Seisakusho Co., Ltd.) was inserted. The tracheal cannula was connected to a ventilator (SN-480-7, available from Shinano Seisakusho Co., Ltd.), and artificial respiration was controlled by supplying 100% oxygen at a volume of 10 mL and a ventilation rate of 60 times/minute. The solvent used was 0.5 w/v % methyl cellulose 400 solution (available from FUJIFILM Wako Pure Chemical Corporation). Isoflurane (available from Pfizer Japan Inc.) anesthesia (about 1 to 4%, carrier gas: 100% oxygen) was used for maintenance of anesthesia. A catheter (BD intramedic polyethylene tubing PE50, available from Becton, Dickinson and Company) charged with 50 units/mL heparin (available from AY PHARMACEUTICALS CO., LTD.) was inserted into each of the carotid artery and the jugular vein and placed in the blood vessel. Systemic blood pressure was measured with a high-sensitivity DC amplifier (AD-611J, available from NIHON KOHDEN CORPORATION) via the catheter placed in the carotid artery. Electrodes were attached to the body surface, and a body surface electrocardiogram was measured with a high-sensitivity amplifier (AB-611J, available from NIHON KOHDEN CORPORATION). Blood pressure and electrocardiogram data were acquired and analyzed with PowerLab/Labchart system (available from ADInstruments). Analysis items are systolic blood pressure, diastolic blood pressure, average blood pressure, heart rate, P-wave width, PR interval, QRS width, QT interval, and corrected QT interval. Corrected QT interval was calculated using the Fridericia formula (QTc=QT interval/RR interval^1/3). After stabilization of each parameter, siponimod (synthesized according to WO 2017/120124) was continuously administered intravenously at 0.01 mg/kg for 10 minutes via the catheter placed in the jugular vein, followed by observation of the presence or absence of the onset of bradyarrhythmia for 60 minutes. The solvent used was a solution prepared by mixing of Polyethylene Glycol 400 (available from KANTO CHEMICAL CO., INC.) and dimethyl sulfoxide (available from FUJIFILM Wako Pure Chemical Corporation) at 9: 1 (volume ratio). Data were recorded and blood was collected 5, 10, 15, 20, 30, and 60 minutes after initiation of administration of siponimod. The observation was terminated 60 minutes after initiation of the administration, and the animal was euthanized by exsanguination or intravenous administration of a large amount of saturated potassium chloride solution under isoflurane anesthesia. Data were analyzed for atrial beating rate over time, ventricular beating rate over time, electrocardiographic parameters, the presence or absence of the onset of atrioventricular block, and plasma concentrations of compound (I) and siponimod. The plasma was collected by centrifuging the blood and cryopreserved at about −20° C. After thawing of the plasma, plasma drug concentrations were measured using LC/MS/MS after deproteinization with acetonitrile.
In FIG. 3, the measurements are shown as mean±standard error. Abbreviations, etc. are as follows. • (I): compound (I) • Atrioventricular block: the presence or absence of atrioventricular block • (x denotes second- or third-degree atrioventricular block) • PR & QRS: atrioventricular conduction time and ventricular activation time • QT & QTcF: ventricular repolarization time and heart rate-corrected ventricular repolarization time • Plasma concentration: the plasma concentration of siponimod or compound (I)

Hartley guinea pigs [2] = experiment: Effect on fingolimod-induced decrease in blood lymphocytes in guinea pig; settings: compound (I) 10 or 30 mg/kg oral gavage 30 min before fingolimod hydrochloride 0.1 mg/kg oral; 5 and 24 hours; FIG. 7
Procedure: Hartley guinea pigs (8 weeks old, male, available from Japan SLC, Inc.) were fasted for about 16 hours, and then a solvent or compound (I) (free form) was administered by oral gavage to each animal at a dose of 10 or 30 mg/kg (volume: 5 mL/kg). The solvent used was 0.5 w/v % methyl cellulose 400 solution (available from FUJIFILM Wako Pure Chemical Corporation). Thirty minutes after the administration, a solvent or fingolimod hydrochloride was administered by oral gavage to the animal at a dose of 0.1 mg/kg (volume: 5 mL/kg). The solvent used was saline (available from Otsuka Pharmaceutical Factory, Inc.). Blood was collected from the jugular vein, the subclavian vein, or the abdominal vena cava before administration of compound (I) and 5 and 24 hours after administration of fingolimod hydrochloride. Blood cell components were analyzed with a multi-item automatic blood cell counter (XN-1000, available from Sysmex Corporation). The plasma was collected by centrifuging the blood and cryopreserved at about −20° C. After thawing of the plasma, plasma drug concentrations were measured using LC/MS/MS after deproteinization with acetonitrile.
In FIG. 7, the measurements are shown as mean±standard error, and (I) denotes compound (I).

## Cc1cc(CO)nc2cc3c(cc12)OC(C)(C)[C@H](O)[C@H]3NCCc1ccccc1 [Compound (I), (3R,4S)-7-Hydroxymethyl-2,2,9-trimethyl-4-(phenethylamino)-3,4-dihydro-2H-pyrano[2,3-g]quinoline-3-ol]
Beagle dog
  effect on cardiac contraction inhibitory action of propranolol (left ventricular ejection fraction): did not affect
Beagle dog; propranolol 2 mg/kg bolus then 1 mg/minute i.v.
  propranolol-induced bradycardia (heart rate): improved bradycardia
Hartley guinea pigs [1]; 0.3 mg/kg oral gavage, four cases per group
  cases in which siponimod-induced atrioventricular block was not observed: 50%
Hartley guinea pigs [1]; 1 mg/kg oral gavage, four cases per group
  cases in which siponimod-induced atrioventricular block was not observed: 75%
Hartley guinea pigs [1]; 3 mg/kg oral gavage, four cases per group
  cases in which siponimod-induced atrioventricular block was suppressed: 100%
Hartley guinea pigs [1]; 3 mg/kg oral gavage, siponimod 0.01 mg/kg i.v.
  siponimod-induced bradycardia (ventricular beating rate / heart rate): completely restored; also recorded: completely prevented
Hartley guinea pigs [1]; 0.3, 1, 3 mg/kg oral gavage, FIG. 3 and FIG. 4
  onset of siponimod-induced bradyarrhythmia (atrioventricular block): prevented the onset of siponimod-induced bradyarrhythmia (atrioventricular block) in a dose-dependent manner
Hartley guinea pigs [1]; compound (I) 0.3, 1, 3 mg/kg oral gavage before siponimod 0.01 mg/kg i.v. over 10 min, FIG. 3
  siponimod-induced bradycardia (ventricular beating rate / heart rate): improved in a dose-dependent manner; also recorded: prevented a reduction in heart rate
Hartley guinea pigs [1]; compound (I) oral gavage 0.3-3 mg/kg
  siponimod-induced prolongation of QT time: almost completely suppressed
Hartley guinea pigs [2]
  effect on the peripheral blood lymphocyte decreasing action of fingolimod: does not inhibit
